In one test the target is T1, 5-HT7 receptor (Homo sapiens, UniProt P34969).
T1 construct: expressed in transfected cells
The test can be described thus: 5-HT7 receptor affinity: [3H]5-HT radioligand binding assay. The following applies: membranes of AV-12 cells, 1 nM [3H]5-HT. Here is the method: Membranes for affinity and antagonist activity assays are prepared essentially as follows. AV-12 cells, stably expressing the 5-HT7 receptor, are grown as a monolayer in 5×T-150 flasks in DMEM/F12 (3:1) 5% FBS, 20 mM HEPES, […] geneticin, 50 mg/mL tobramycin. After growing to 90% confluence the media is removed and replaced with Hybritech media containing 2% horse serum, […] dextran sulfate, 1 mg/mL nucellin, 1 mg/mL human transferrin (partially iron saturated), 50 mg/mL tobramycin, 20 mM HEPES, […] geneticin, 0.04% pluronic F68. […]
To prepare membranes, the above pellets are resuspended in ice-cold Tris buffer (20 mM Tris HCl, pH 7.4 at 23° C., 5 mM EDTA) and homogenized with a Wheaton tissue grinder. […] Protein concentrations are determined by the method of Bradford. […]

A further test deals with T2, 5-HT2B (Homo sapiens, UniProt P41595).
T2 construct: expressed in transfected cells
T2 sequence (P41595 whole entry, species assumed): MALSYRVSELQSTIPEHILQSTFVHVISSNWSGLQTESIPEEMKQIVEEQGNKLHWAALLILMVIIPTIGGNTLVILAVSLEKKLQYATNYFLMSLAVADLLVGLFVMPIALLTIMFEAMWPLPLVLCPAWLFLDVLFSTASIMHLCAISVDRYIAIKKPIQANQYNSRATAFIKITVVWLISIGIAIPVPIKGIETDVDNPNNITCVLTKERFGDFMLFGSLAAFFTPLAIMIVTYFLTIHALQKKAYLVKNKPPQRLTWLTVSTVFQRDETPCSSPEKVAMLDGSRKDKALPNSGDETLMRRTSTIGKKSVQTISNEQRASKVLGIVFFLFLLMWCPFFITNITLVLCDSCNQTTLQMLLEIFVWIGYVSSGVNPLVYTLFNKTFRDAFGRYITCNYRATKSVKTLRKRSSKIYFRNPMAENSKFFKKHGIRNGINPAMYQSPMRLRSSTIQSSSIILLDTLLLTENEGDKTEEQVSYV
The test can be described thus: Radioligand binding assay, 5-HT2B. Here is the method: (§1) [^3H] […] The reactions are incubated at room temperature for 3 hr. and then counted in a Trilux Microbeta™ scintillation counter to detect receptor-bound radioligand. Binding data are analyzed by computer-assisted 4 parameter fit analysis (ID Business Solutions Ltd, Guildford, Surrey, UK). […]
(§2) Affinity for other serotonin receptor subtypes as well as for alpha 1 & 2 adrenergic receptors can readily be determined by modification of the above described radioligand receptor binding assay using membranes derived from cells stably expressing the desired receptor subtype including the 5-HT1A, 5-HT1B, and 5-HT1D subtypes, as well as the 5-HT2A, 5-HT2B, 5-HT2C, 5-HT4, 5-HT7, and 5-HT6 receptor subtypes. […]

For a further test, the target named is T3, 5-HT6 (Homo sapiens, UniProt P50406).
T3 construct: expressed in transfected cells
T3 sequence (P50406 whole entry, species assumed): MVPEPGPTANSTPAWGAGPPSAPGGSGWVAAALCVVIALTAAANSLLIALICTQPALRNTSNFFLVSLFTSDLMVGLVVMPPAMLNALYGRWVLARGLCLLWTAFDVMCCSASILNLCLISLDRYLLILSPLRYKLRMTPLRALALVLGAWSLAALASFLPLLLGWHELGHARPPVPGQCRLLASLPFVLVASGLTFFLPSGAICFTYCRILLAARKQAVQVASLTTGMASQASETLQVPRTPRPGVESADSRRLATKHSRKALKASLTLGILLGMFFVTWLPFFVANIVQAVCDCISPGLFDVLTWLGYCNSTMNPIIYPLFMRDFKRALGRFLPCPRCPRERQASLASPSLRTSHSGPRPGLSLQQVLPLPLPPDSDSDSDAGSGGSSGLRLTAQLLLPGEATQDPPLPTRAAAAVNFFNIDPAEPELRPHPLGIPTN
The test can be described thus: Radioligand binding assay, 5-HT6. Here is the method:
as §1, §2

The target of another test is alpha 1 adrenergic. The test can be described thus: Radioligand binding assay, alpha 1 adrenergic. Here is the method: as §1, §2
The next test deals with alpha 2 adrenergic. Kind of test: Radioligand binding assay, alpha 2 adrenergic. On the procedure: as §1, §2

Where “and” joins values, the source holds several entries; their conditions need not be identical. Equal values may be shown once.

T1 sequence (P34969 whole entry): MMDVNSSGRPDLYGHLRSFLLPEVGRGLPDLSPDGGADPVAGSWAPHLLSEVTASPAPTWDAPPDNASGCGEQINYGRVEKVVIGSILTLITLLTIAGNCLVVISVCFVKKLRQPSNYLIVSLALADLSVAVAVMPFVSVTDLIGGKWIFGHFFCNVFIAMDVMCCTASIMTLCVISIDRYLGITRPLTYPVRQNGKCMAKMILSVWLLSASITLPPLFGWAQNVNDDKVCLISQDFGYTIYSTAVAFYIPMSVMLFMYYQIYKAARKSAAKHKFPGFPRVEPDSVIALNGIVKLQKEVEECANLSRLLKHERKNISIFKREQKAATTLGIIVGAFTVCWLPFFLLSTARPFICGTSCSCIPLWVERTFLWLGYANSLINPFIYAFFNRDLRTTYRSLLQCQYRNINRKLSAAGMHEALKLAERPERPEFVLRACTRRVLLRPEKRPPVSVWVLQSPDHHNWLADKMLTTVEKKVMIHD

One may read the Ki as a dissociation constant, usually derived from enzyme kinetics or from competition with a known ligand. High values mean lower affinity, low ones higher affinity. For `CCn1ncc(CN2CCN(c3cccnc3N3CCC(O)CC3)CC2)c1C.Cl` [Example 1, 3′-[4-(1-Ethyl-5-methyl-1H-pyrazol-4-ylmethyl)-piperazin-1-yl]-3,4,5,6-tetrahydro-2H-[1,2]bipyridinyl-4-ol hydrochloride], the Ki is ~16.2 nM and 16.2 nM at 5-HT7 receptor; above 6810 nM on 5-HT2B; above 5830 nM on 5-HT6; 1380 nM at alpha 1 adrenergic; above 2670 nM at alpha 2 adrenergic.

The values are drawn from US7910588B2, “5-HT7 receptor antagonists” (Eli Lilly and Company, priority 2007, dated 2011).
